Results: patent US5043336A (priority 1990, dated 1991)
Counter-ions that a name gives are not always drawn.

Legend:
[1] = system: CCRF-CEM cell line (human leukemic cells); assay: CCRF-CEM Cytotoxicity Assay (growth inhibition of human leukemic cells, 72 h); format: cell-based; settings: 37° C.; for IC50: Homo sapiens, CCRF-CEM, 72 h, read-out: IC50 (concentration giving 50% growth inhibition)
Experimental: The CEM cells were grown in RPMI 1640 media (MA Bioproducts) at 37° C. in humidified atmospheric conditions of 95% air and 5% carbon dioxide. The cells were grown in static suspension and maintained in log growth phase at a concentration of 3-7×10^5 cells/ml. The cells were dispersed in wells at a concentration of 4.8×10^4 /well. The drug was dissolved in dimethyl sulfoxide or water and was added at different dilutions to the cluster plates (wells). The cluster plates were incubated at 37° C. for 72 hours. After 72 hours the wells were read using a ZBI Coulter particle counter. Table 2 below gives the results of such testing of several compounds represented by Formula I above. In the table, Column 1 gives the name of the compound and Column 2 gives the IC50 (concentration giving 50% growth inhibition) in μg/ml.

[2] = pKa (66% DMF); format: physicochemical
[3] = trial test of the water solubility of the salt; format: physicochemical; settings: after adjusting pH to 3.6, before additional 0.5 ml of 2% sulfuric acid
Experimental: All of the 4-desacetyl VLB C-3 N^2 -(hexahydro-2-methyl-7-oxo-1H-azepin-1-yl)carboxhydrazide prepared from Example 6 was dissolved in 50 ml of ethanol. The initial pH of 4.9 was adjusted to 3.6 with 2% sulfuric acid in ethanol. […] This material was evaporated to dryness in vacuo, which yielded 750 mg of the title compounds.

[4] = system: Ridgeway osteogenic sarcoma; settings: transplanted tumors in mice; cited from earlier work
[5] = system: P1534(J) leukemia; settings: transplanted tumors in mice; cited from earlier work
[6] = system: Gardner lymphosarcoma; settings: transplanted tumors in mice; cited from earlier work
[7] = system: experimental malignancies; settings: in vivo; cited from earlier work
[8] = in humans; cited from earlier work
[9] = system: vincristine-resistant leukemias; settings: in humans; cited from earlier work

For `CC[C@]1(O)C[C@@H]2CN(CCc3c([nH]c4ccccc34)[C@@](C(=O)OC)(c3cc4c(cc3OC)N(C)[C@H]3[C@@](O)(C(=O)NN5C(=O)CCC5C)[C@H](O)[C@]5(CC)C=CCN6CC[C@]43[C@@H]65)C2)C1` (single isomer, unassigned) [4-Desacetyl VLB C-3 N^2 -(2-methyl-5-oxo-1-pyrrolidinyl)carb] [4-Desacetyl VLB C-3 N^2-(2-methyl-5-oxo-1-pyrrolidinyl)carboxhydrazide(Isomer 2) sulfate salt], the “IC50 (concentration giving 50% growth inhibition)” value ([1]; sulfate salt) was 0.09 µg/mL.

With `CC[C@]1(O)C[C@@H]2CN(CCc3c([nH]c4ccccc34)[C@@](C(=O)OC)(c3cc4c(cc3OC)N(C)[C@H]3[C@@](O)(C(=O)NN5C(=O)CCC5C)[C@H](O)[C@]5(CC)C=CCN6CC[C@]43[C@@H]65)C2)C1` (single isomer, unassigned) [4-Desacetyl VLB C-3 N^2-(2-methyl-5-oxo-1-pyrrolidinyl)carboxhydrazide(Isomer 1) sulfate salt] the IC50 [1] was 0.1 µg/mL.

Compound `CC[C@]1(O)C[C@@H]2CN(CCc3c([nH]c4ccccc34)[C@@](C(=O)OC)(c3cc4c(cc3OC)N(C)[C@H]3[C@@](O)(C(=O)N5N=C(C)CCCC5=O)[C@H](O)[C@]5(CC)C=CCN6CC[C@]43[C@@H]65)C2)C1` [4-Desacetyl VLB C-3 N^1-(4,5,6,7-tetrahydro-3-methyl-7-oxo-1H-1,2-diazepin-1-yl)carboxhydrazide sulfate salt] has an IC50 [1] of 0.019 µg/mL.

With `CC[C@]1(O)C[C@@H]2CN(CCc3c([nH]c4ccccc34)[C@@](C(=O)OC)(c3cc4c(cc3OC)N(C)[C@H]3[C@@](O)(C(=O)NNC(C)CCC(=O)O)[C@H](O)[C@]5(CC)C=CCN6CC[C@]43[C@@H]65)C2)C1` (some centres unmarked) [4-Desacetyl VLB C-3 N^2-(3-carboxy-1-methylpropyl)carboxhydrazide] the pKa ([2]; first value listed) was 5.3, the pKa ([2]; second value listed) was 6.9 and the pKa ([2]; third value listed) was 7.9.

`CC[C@]1(O)C[C@@H]2CN(CCc3c([nH]c4ccccc34)[C@@](C(=O)OC)(c3cc4c(cc3OC)N(C)[C@H]3[C@@](O)(C(=O)NN=C(C)CCCC(=O)O)[C@H](O)[C@]5(CC)C=CCN6CC[C@]43[C@@H]65)C2)C1` [4-Desacetyl VLB C-3 N^2-(4-carboxy-1-methylbutylidene)carboxhydrazide] showed a pKa ([2]; first value listed) of 5.1, a pKa ([2]; second value listed) of 6.6 and a pKa ([2]; third value listed) of 7.7.

`CC[C@]1(O)C[C@@H]2CN(CCc3c([nH]c4ccccc34)[C@@](C(=O)OC)(c3cc4c(cc3OC)N(C)[C@H]3[C@@](O)(C(=O)NN=C(C)CCCCC(=O)O)[C@H](O)[C@]5(CC)C=CCN6CC[C@]43[C@@H]65)C2)C1` [4-Desacetyl VLB C-3 N^2-(5-carboxy-1-methylpentylidene)carboxhydrazide] gave a pKa ([2]; first value listed) of 5.3, a pKa ([2]; second value listed) of 7 and a pKa ([2]; third value listed) of 8.1.

For `CC[C@]1(O)C[C@@H]2CN(CCc3c([nH]c4ccccc34)[C@@](C(=O)OC)(c3cc4c(cc3OC)N(C)[C@H]3[C@@](O)(C(=O)NN5C(=O)CCCCC5C)[C@H](O)[C@]5(CC)C=CCN6CC[C@]43[C@@H]65)C2)C1` (some centres unmarked) [4-Desacetyl VLB C-3 N^2-(hexahydro-2-methyl-7-oxo-1H-azepin-1-yl)carboxhydrazide sulfate salt], the IC50 [1] was 0.0056 µg/mL and the “water solubility of the salt” value [3] was “not completely soluble”.

For `CC[C@]1(O)C[C@@H]2CN(CCc3c([nH]c4ccccc34)[C@@](C(=O)OC)(c3cc4c(cc3OC)N(C)[C@H]3[C@@](O)(C(=O)NN)[C@H](O)[C@]5(CC)C=CCN6CC[C@]43[C@@H]65)C2)C1` [4-Desacetyl VLB C-3 carboxhydrazide], the “activity against Ridgeway osteogenic sarcoma” value [4] is given as “active”, the “activity against P1534(J) leukemia” value [5] is given as “active” and the “activity against Gardner lymphosarcoma” value [6] is given as “active”.

For `CCC1(O)CN2CCc3c([nH]c4ccccc34)C(C(=O)OC)(c3cc4c(cc3OC)N(C)C3C(O)(C(=O)OC)CC5(CC)C=CCN6CCC43C65)CC(C2)C1O` (centres unmarked) [4-desacetoxy-3'-hydroxyvinblastine], the “activity in the treatment of experimental malignancies in animals” value (“activity in the treatment” for short) [7] is listed as “active”.

For `CC[C@]1(O)C[C@@H]2CN(CCc3c([nH]c4ccccc34)[C@@](C(=O)OC)(c3cc4c(cc3OC)N(C)[C@@H]3[C@]45CCN4CC=C[C@@](CC)(C[C@]3(O)C(=O)OC)[C@H]45)C2)C1` [4-desacetoxyvinblastine], the “activity in the treatment” value [7] is listed as “active”.

For `CC[C@]1(O)C[C@@H]2CN(CCc3c([nH]c4ccccc34)[C@@](C(=O)OC)(c3cc4c(cc3OC)N(C)[C@H]3[C@@](O)(C(=O)OC)[C@H](OC(C)=O)[C@]5(CC)C=CCN6CC[C@]43[C@@H]65)C2)C1` [VLB, vincaleukoblastine], the “activity in the treatment” value [7] is listed as “active”.

In the case of `CCC1CC2CN(CCc3c([nH]c4ccccc34)C(C(=O)OC)(c3cc4c(cc3OC)N(C)C3C(O)(C(=O)OC)C(OC(C)=O)C5(CC)C=CCN6CCC43C65)C2)C1` (centres unmarked) [deoxy VLB "A"], the “activity in the treatment” value [7] is given as “active”.

In the case of `CCC1(O)CN2CCc3c([nH]c4ccccc34)C(C(=O)OC)(c3cc4c(cc3OC)N(C)C3C(O)(C(=O)OC)C(OC(C)=O)C5(CC)C=CCN6CCC43C65)CC(O)(C2)C1` (centres unmarked) [leurocolombine], the “activity in the treatment” value [7] is given as “active”.

In the case of `CC[C@]12CN3CCc4c([nH]c5ccccc45)[C@@](C(=O)OC)(c4cc5c(cc4OC)N(C=O)[C@H]4[C@@](O)(C(=O)OC)[C@H](OC(C)=O)[C@]6(CC)C=CCN7CC[C@]54[C@@H]76)C[C@@H](C3)[C@H]1O2` [leuroformine], the “activity in the treatment” value [7] is given as “active”.

In the case of `CC[C@@]1(O)C[C@@H]2CN(CCc3c([nH]c4ccccc34)[C@@](C(=O)OC)(c3cc4c(cc3OC)N(C)[C@H]3[C@@](O)(C(=O)OC)[C@H](OC(C)=O)[C@]5(CC)C=CCN6CC[C@]43[C@@H]65)C2)C1` [leurosidine], the “activity in the treatment” value [7] is listed as “active”.

In the case of `CC[C@]12CN3CCc4c([nH]c5ccccc45)[C@@](C(=O)OC)(c4cc5c(cc4OC)N(C)[C@H]4[C@@](O)(C(=O)OC)[C@H](OC(C)=O)[C@]6(CC)C=CCN7CC[C@]54[C@@H]76)C[C@H](C3)[C@H]1O2` [leurosine], the “activity in the treatment” value [7] is listed as “active”.

For `CCC1(O)CN2CCc3c([nH]c4ccccc34)C(C(=O)OC)(c3cc4c(cc3OC)N(C)C3C(O)(C(=O)OC)C(OC(C)=O)C5(CC)C=CCN6CCC43C65)CC(C2)C1O` (centres unmarked) [vincadioline], the “activity in the treatment” value [7] is given as “active”.

For `CC[C@]1(O)C[C@H]2CN(CCc3c([nH]c4ccccc34)[C@@](C(=O)OC)(c3cc4c(cc3OC)N(C=O)[C@H]3[C@@](O)(C(=O)OC)[C@H](OC(C)=O)[C@]5(CC)C=CCN6CC[C@]43[C@@H]65)C2)C1` [vincristine], the “activity in the treatment” value [7] is listed as “active”.

For `CC[C@]1(O)C[C@@H]2CN(CCc3c([nH]c4ccccc34)[C@@](C(=O)OC)(c3cc4c(cc3OC)N(C)[C@H]3[C@@](O)(C(N)=O)[C@H](O)[C@]5(CC)C=CCN6CC[C@]43[C@@H]65)C2)C1` [vindesine, 4-desacetyl VLB C-3 carboxamide], the “neurotoxicity compared with vincristine” value [8] is given as “less neurotoxicity than does vincristine” and the “effectiveness against vincristine-resistant leukemias” value [9] is given as “apparently effective”.
